US20110245316A1, “PREVENTION OR DELAY OF ONSET OF ORAL MUCOSITIS” (SCICLONE PHARMACEUTICALS, INC., priority 2010, published 2011)

Experiments:
[1] = tested on: cytokines and gene expression in CRT-treated HNC patients; assay: Cytokine and gene microarray analyses of patient samples; format: in vivo, human
Method: SCV-07 efficacy, dosing and scheduling parameters were assessed in hamster models of acute, fractionated and concomitant chemoradiation (CRT). […] A multicenter, prospective, blinded, randomized trial evaluated SCV-07's ability to alter OM in CRT-treated HNC patients (n=57). Cytokine and gene microarray analyses were performed for samples obtained before and on the last radiation day.

[2] = tested on: patients receiving CT/RT for head and neck cancer; assay: Phase 2 trial: safety and tolerability; format: in vivo, human; details: 0.02 or 0.1 mg/kg on each radiation day for up to 7 weeks
Description: OM is a painful, debilitating, and costly toxicity of different chemoradiotherapy (CT/RT) regimens used to treat head and neck cancer. This trial is a phase 2, randomized, double-blind, dose-ranging, placebo-controlled three-arm study in patients receiving CT/RT for the treatment of head and neck cancer, to assess the safety and tolerability of γ-D-glutamyl-L-tryptophan (SCV-07) as well as its efficacy in delaying the onset of severe OM as assessed by the WHO Oral Mucositis Scale.
59 eligible patients with recently diagnosed, treatment naïve, pathologically-confirmed, non-metastatic squamous cell carcinoma of the oral cavity, oropharynx, hypopharynx or larynx were enrolled and treated with a concomitant regimen of CT/RT consisting of a continuous course of external beam irradiation (IMRT eligible) with a minimum cumulative dose of 50 Gray (Gy) and cisplatin monotherapy administered using standard weekly or tri-weekly dosing regimens (80-100 mg/m^2 administered on Days 0, 21 and 42) or weekly (30-40 mg/m^2). At least two ‘at risk’ intraoral sites were included in the radiation fields and received a cumulative RT dose of at least 50 Gy. Subjects were equally randomized to receive either placebo or one of two doses of γ-D-glutamyl-L-tryptophan (0.02 or 0.1 mg/kg) on each radiation day for up to 7 weeks.

[3] = persons who clinically responded to SCV-07

In the case of N[C@H](CCC(=O)N[C@@H](Cc1c[nH]c2ccccc12)C(=O)O)C(=O)O [SCV-07, γ-D-glutamyl-L-tryptophan], the ICAM ([1]; SCV-07-treated patients) is reported as “Increases”, the IL-1alpha ([1]; SCV-07-treated patients) is reported as “Decreases” and the IL-5 ([1]; SCV-07-treated patients) is reported as “Decreases”. The IL-12 ([1]; SCV-07-treated patients) was “Increases”, the IL-15 ([1]; SCV-07-treated patients) was “Decreases” and the MIF ([1]; SCV-07-treated patients) was “Increases”. For the same molecule, the MIP-1beta ([1]; SCV-07-treated patients) was “Increases”, the MIP-3 alpha ([1]; SCV-07-treated patients) was “Decreases” and the Pro-inflammatory cytokine levels ([1]; SCV-07-treated patients) was “reduced”. For the same molecule, the TNF-alpha ([1]; SCV-07-treated patients) was “Decreases”, the VCAM ([1]; SCV-07-treated patients) was “Increases” and the macrophage-associated cytokines ([1]; SCV-07-treated patients) was “Elevated”. The “Gene expression (microarray)” value ([1]; SCV-07 vs placebo patients) was “Gene expression differences were noted”, the IL-21 [1, 3] was “increases” and the MIF [1, 3] was “increases”. The VEGF [1, 3] was “decrease”, the safety and tolerability [2] was “safe and well tolerated with no drug-related serious adverse events reported” and the safety and tolerability ([2]; listed as γ-D-glutamyl-L-tryptophan) was “safe and well tolerated”.
